Experimental data reported in publication PMC3705398 (Marine Drugs, 2013).
“Also recorded” adds a separate entry of the source. Like-named read-outs stand apart in the source and are kept apart here. Where a SMILES comes first, the peptide text is derived from it.

Assays:
[1] = biological target: T1, CaV2.2 (N-type) calcium channels in rat superior cervical ganglion (SCG) neurons (Rattus norvegicus, UniProt Q02294); experiment: cell-based; format: cell-based, rat (Wistar)
T1 construct: SCG neurons are the most used native preparation to assess CaV2.2 (N-type) channel function; endogenous in cells

adult male ICR mice [2] = settings: mouse, in vivo
adult male ICR mice [3] = settings: mouse, in vivo; remark: listed apart in the source
[4] = read-out: inhibition of calcium current

T1 sequence (Q02294 whole entry): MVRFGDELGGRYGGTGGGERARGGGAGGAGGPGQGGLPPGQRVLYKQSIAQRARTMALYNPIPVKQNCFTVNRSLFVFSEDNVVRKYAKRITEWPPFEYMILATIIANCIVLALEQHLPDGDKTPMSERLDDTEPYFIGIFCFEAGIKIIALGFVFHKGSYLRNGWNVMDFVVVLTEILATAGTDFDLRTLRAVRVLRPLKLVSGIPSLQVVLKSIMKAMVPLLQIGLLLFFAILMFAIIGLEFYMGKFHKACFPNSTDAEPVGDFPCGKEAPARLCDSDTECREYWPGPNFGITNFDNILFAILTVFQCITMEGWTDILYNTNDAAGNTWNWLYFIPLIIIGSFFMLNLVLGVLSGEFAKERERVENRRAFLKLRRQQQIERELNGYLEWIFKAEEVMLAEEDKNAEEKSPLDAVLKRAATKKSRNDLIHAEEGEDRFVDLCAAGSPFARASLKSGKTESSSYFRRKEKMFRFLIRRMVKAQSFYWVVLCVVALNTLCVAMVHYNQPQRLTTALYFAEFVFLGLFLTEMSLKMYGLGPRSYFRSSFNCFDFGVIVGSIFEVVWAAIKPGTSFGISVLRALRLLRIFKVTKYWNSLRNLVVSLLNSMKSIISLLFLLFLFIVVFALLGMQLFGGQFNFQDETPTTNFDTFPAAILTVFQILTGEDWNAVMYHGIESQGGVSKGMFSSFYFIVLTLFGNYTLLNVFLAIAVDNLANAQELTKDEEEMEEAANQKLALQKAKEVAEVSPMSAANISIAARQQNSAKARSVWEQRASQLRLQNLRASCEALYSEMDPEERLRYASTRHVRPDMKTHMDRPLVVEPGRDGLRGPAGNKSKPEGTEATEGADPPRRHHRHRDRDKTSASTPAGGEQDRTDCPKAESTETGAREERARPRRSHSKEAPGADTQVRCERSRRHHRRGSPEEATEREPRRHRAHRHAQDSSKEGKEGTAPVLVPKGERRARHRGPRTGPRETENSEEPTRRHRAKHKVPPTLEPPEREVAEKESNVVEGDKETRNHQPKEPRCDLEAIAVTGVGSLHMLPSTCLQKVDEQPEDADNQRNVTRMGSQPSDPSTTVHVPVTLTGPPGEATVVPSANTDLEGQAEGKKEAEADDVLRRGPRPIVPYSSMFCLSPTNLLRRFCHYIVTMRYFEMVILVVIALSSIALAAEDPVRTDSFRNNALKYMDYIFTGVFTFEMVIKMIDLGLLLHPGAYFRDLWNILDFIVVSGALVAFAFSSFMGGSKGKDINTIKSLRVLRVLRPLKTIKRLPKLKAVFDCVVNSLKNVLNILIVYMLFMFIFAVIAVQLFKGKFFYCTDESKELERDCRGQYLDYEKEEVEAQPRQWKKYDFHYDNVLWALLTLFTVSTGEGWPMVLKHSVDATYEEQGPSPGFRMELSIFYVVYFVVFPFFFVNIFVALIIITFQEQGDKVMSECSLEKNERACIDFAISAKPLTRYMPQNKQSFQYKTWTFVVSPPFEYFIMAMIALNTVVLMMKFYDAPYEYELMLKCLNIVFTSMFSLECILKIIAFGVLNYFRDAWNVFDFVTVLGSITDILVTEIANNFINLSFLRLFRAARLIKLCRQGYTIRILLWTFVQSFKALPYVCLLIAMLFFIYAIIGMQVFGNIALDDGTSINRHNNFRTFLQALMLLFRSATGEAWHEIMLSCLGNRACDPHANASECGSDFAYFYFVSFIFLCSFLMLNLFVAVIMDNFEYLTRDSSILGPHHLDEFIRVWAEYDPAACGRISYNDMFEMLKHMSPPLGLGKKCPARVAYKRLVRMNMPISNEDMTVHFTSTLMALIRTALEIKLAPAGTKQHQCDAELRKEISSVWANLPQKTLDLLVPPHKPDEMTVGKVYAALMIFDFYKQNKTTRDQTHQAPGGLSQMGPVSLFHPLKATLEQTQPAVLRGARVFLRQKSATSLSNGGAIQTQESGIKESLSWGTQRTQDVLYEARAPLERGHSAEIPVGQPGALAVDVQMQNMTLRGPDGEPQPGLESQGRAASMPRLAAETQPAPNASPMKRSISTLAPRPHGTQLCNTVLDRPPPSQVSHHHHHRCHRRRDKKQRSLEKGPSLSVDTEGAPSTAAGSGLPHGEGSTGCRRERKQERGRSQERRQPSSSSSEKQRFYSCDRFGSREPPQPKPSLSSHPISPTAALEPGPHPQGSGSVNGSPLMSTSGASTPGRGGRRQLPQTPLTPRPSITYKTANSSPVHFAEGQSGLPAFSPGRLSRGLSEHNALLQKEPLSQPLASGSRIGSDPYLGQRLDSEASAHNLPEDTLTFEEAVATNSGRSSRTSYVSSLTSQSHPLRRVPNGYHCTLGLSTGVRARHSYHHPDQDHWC
T1 sequence (P54290 25-1091 partner): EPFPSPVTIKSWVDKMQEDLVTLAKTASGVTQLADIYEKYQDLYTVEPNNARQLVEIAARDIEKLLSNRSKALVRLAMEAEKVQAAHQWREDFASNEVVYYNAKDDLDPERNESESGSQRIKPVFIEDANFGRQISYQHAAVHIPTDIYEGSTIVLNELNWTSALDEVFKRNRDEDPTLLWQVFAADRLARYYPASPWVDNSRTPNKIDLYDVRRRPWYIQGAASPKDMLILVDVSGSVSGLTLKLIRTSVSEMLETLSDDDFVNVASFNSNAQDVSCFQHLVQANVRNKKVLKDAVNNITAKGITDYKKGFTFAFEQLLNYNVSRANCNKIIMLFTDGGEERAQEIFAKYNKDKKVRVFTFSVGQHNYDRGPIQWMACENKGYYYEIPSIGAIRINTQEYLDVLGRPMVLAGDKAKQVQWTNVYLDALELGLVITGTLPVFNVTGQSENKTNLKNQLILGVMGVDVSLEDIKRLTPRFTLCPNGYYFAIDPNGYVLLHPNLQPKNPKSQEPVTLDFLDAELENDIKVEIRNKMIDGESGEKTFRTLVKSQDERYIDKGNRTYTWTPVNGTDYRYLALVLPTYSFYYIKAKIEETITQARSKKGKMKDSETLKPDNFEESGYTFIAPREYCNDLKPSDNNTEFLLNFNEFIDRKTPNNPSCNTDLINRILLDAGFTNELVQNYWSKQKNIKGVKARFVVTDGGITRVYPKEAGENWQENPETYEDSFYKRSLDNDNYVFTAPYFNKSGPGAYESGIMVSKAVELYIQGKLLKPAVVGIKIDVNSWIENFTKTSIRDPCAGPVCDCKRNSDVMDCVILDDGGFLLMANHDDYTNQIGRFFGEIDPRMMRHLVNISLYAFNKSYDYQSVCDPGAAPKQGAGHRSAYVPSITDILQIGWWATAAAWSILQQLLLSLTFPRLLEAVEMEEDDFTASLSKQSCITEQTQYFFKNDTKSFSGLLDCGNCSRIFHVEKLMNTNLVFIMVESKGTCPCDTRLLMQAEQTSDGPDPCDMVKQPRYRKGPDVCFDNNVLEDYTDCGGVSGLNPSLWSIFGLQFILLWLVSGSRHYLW
T1 sequence (P54287 whole entry partner): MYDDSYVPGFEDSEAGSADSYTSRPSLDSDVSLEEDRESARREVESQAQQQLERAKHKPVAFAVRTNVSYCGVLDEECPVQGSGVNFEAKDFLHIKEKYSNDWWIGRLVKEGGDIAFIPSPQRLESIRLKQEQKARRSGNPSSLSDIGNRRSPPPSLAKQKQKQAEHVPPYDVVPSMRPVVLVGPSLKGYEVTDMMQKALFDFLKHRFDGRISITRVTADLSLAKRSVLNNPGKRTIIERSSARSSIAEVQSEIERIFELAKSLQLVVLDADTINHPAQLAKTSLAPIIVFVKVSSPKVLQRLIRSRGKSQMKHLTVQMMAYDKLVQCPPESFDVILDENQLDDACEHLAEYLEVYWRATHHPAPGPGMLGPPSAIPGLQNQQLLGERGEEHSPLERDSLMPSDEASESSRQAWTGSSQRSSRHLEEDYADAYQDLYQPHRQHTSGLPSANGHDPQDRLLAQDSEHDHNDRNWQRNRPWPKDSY

`CSCC[C@H](NC(=O)[C@H](CC(C)C)NC(=O)[C@H](CCCNC(=N)N)NC(=O)[C@H](CO)NC(=O)CNC(=O)[C@H](CCCCN)NC(=O)[C@H](CO)NC(=O)[C@H](CC(C)C)NC(=O)[C@H](CS)NC(=O)[C@H](Cc1ccccc1)NC(=O)[C@H](CCC(=O)O)NC(=O)[C@H](CCCCN)NC(=O)[C@@H](NC(=O)[C@H](CO)NC(=O)[C@H](CS)NC(=O)[C@H](CO)NC(=O)[C@H](CO)NC(=O)[C@H](CS)NC(=O)[C@H](CO)NC(=O)[C@H](CCC(N)=O)NC(=O)CNC(=O)[C@H](CCCCN)NC(=O)[C@@H](N)CS)[C@@H](C)O)C(=O)N[C@@H](Cc1ccc(O)cc1)C(=O)N[C@@H](CC(=O)O)C(=O)N[C@@H](CS)C(=O)N[C@@H](CS)C(=O)N[C@H](C(=O)NCC(=O)N[C@@H](CO)C(=O)N[C@@H](CS)C(=O)N[C@@H](CS)C(=O)NCC(=O)N[C@H](C(=O)N[C@@H](CCCCN)C(=O)N[C@H](C(=O)N[C@@H](C)C(=O)NCC(=O)N[C@H](C(=O)N[C@H](C(=O)O)[C@@H](C)O)C(C)C)[C@@H](C)O)C(C)C)[C@@H](C)O` [RsXXIVA] (H-CKGQSCSSCSTKEFCLSKGSRLMYDCCTGSCCGVKTAGVT-OH) was tested, and the “CaV2.2 current before restoration (under toxin)” value [1] was −442.9 ± 213.8 pA, the “CaV2.2 current restored after toxin washout” value [1] was −798.2 ± 313.4 pA and the “Hill coefficient of dose-response for CaV2.2 current inhibition” value [1] was 0.94. For the same compound, the “affinity for CaV2.2 (in words)” value [1] was “low affinity for CaV2.2”, the “reversibility of CaV2.2 current inhibition after washing” value [1] was “partially reversed after washing; also recorded: partially reversible; also recorded: the inhibition of the CaV2.2 channel current occurred reversibly” and the “time to inhibit CaV2.2 current” value [1] was “less than 4 s”. It also gave an inhibition at 0.03 µM [1, 4] of 1.6 ± 0.1%, an inhibition at 0.3 µM [1, 4] of 12 ± 0.5% and an inhibition at 3 µM [1, 4] of 58.1 ± 2.6%. For the same compound, the inhibition at 24 µM [1, 4] was 97.9 ± 0.5%, the inhibition at 3 µM ([1]; read-out: percentage of inhibition compared to the block with 100 μM Cd2+) was 58.1% and the “hind paw licking in formalin test (in words) compared with control group” value (adult male ICR mice [2]) was “significantly reduced the hind paw licking during both phase 1 (Figure 6A) and phase 2 (Figure 6B)”. For the same compound, the “analgesic effect in hot-plate test (in words) compared with control (PBS)” value (adult male ICR mice [3]) was “analgesic effect in acute thermal pain at 30 and 45 min post-injection; also recorded: significantly better than the control group (p < 0.05)”.
